Measured values taken from patent US20250206759A1, “FUSED RING COMPOUND, PHARMACEUTICAL COMPOSITION CONTAINING SAME, AND USE OF FUSED RING COMPOUND” (CHENGDU HYPERWAY PHARMACEUTICALS CO., LTD., priority 2022, published 2025).
Where two headings read alike, the source gives them in different places.

What was measured:
[1] = Pharmacokinetics of compounds in rats (oral); format: in vivo, SD rats; settings: for AUC / Cmax: male SD rats
Procedure: Male SD rats were purchased from Shanghai SIPPR-Bk Lab Animal Co., Ltd. Each test compound was administered orally (3 rats per group) once to SD rats for pharmacokinetic study. The test compounds were prepared on the day of administration. The test compounds were suspended in 5% DMSO+95% saline, and then vortexed for 2 min and ultrasonicated for 5 min to prepare the administration system. The animals were fasted for 10-14 h before oral administration, and the feeding was resumed 4 h after administration. After oral administration by gavage, pharmacokinetic samples were collected from SD rats through the jugular vein. The collection time points were: before administration, 15 min, 30 min, 1 h, 2 h, 4 h, 6 h, 8 h and 24 h after administration. Three whole blood samples were collected at each time point, with a collection volume of about 0.2 mL, and anticoagulated with sodium heparin. After blood samples were collected, they were immediately placed on ice and centrifuged to separate plasma within 1 hour (centrifugation conditions: 6800 rpm, 6 min, 2-8° C.). The collected plasma was stored in a −80° C. refrigerator before analysis.

[2] = system: KRas G12D-mediated ERK phosphorylation; assay: Inhibition of KRas G12D-mediated ERK phosphorylation in AGS cells; format: cell-based; settings: read-out: AGS-pERK IC50
Procedure: Day 1: AGS cells were seeded into 384-well cell culture plates and cultured overnight in a 37° C., 5% CO2 incubator.
Day 2: The compounds were added to the plates using Echo550 and incubated for 3 h in a 37° C., 5% CO2 incubator. Then cells were fixed with paraformaldehyde, permeated with methanol, and blocked with the blocking solution. Finally, a mixed solution of primary antibodies (rabbit anti pERK, mouse anti GAPDH) was added, and the mixture was incubated at 4° C. overnight.
Day 3: The mixed solution of primary antibodies was discarded, and a mixed solution of secondary antibodies (goat anti rabbit 800CW, goat anti mouse 680RD) was added. The mixture was incubated at room temperature in the dark. Finally, the cell culture plate was washed with PBST, and then inverted for 1 minute of centrifugation. The fluorescence signal values were read with Odyssey CLx.
ERK phosphorylation was calculated according to the following formula: […]
X: log value of compound concentration.
Y: average value of relative expression of p-ERK between replicate wells.

[3] = system: ASPC-1 cells; assay: 3D cell proliferation inhibition test (CellTiter-Glo), ASPC-1 cells; format: cell-based; settings: 7 days, read-out: ASPC-1 cells 3D CTG IC50
Procedure: (§1) The diluted compounds to be tested were added to 384-well low-adhesion cell culture plates by using a nanoliter pipetting system (LABCYTE, P-0200). Then, the cells were plated and incubated in a 37° C., […] incubator for 7 days. Afterward, CellTiter-Glo® […] reagent was added, and the luminescent values were read by an Envision multifunctional microplate reader (the luminescent signal is proportional to the amount of ATP in the system, and the ATP content directly represents the number of viable cells in the system). Finally, the IC50 values (half-maximal inhibitory concentration) of the compounds were obtained by the XLFIT software using the nonlinear fitting formula.
(§2) a) The diluted compounds to be tested were added to 384-well low-adsorption cell culture plates by using a nanoliter pipetting system.
(§3) b) Cells were seeded into the 384-well plates in a) and then centrifuged at 1000 rpm for 1 min at room temperature, with a final DMSO concentration of compound being 0.5%. The plates were then incubated in a 37° C., 5% CO2 constant temperature incubator for 7 days.
(§4) c) CellTiter-Glo® 3D was added to the 384-well cell culture plates in b), shaken in the dark, and incubated at room temperature.
(§5) d) The luminescence values were read by using an Envision multifunctional microplate reader.
(§6) The IC50 (half-maximal inhibitory concentration) values of the compounds were obtained by using XLFIT software according to the following nonlinear fitting formula:
(§7) [formula] • X: log value of compound concentration. • Y: inhibition rate (%)
(§8) Inhibition rate (%)=100×(average value of negative control−compound)/(average value of negative control−average value of positive control)
(§9) Positive control: Medium only.

[4] = system: GP2d cells; assay: 3D cell proliferation inhibition test (CellTiter-Glo), GP2d cells; format: cell-based; settings: 7 days, read-out: GP2d cells 3D CTG IC50
Procedure: as §1, §2, §3, §4, §5, §6, §7, §8, §9

[5] = male, SD, rat, plasma, po, 100 mg/kg, 100 mg/kg, read-out: AUC
[6] = male, SD, rat, plasma, po, 100 mg/kg, 100 mg/kg, read-out: Cmax

oral pharmacokinetics (Cmax and AUC) ([1]; SD rats) | AUC ([1]; 10 mg/kg) | Cmax ([1]; 10 mg/kg) [ng/mL] | AUC ([1]; 100 mg/kg) [ng·h/mL] | Cmax ([1]; 100 mg/kg) [ng/mL] | IC50 [2] [nM] | IC50 [3] [nM] | Structure (SMILES) | AUC [1, 5] [ng·h/mL] | Cmax [1, 6] [ng/mL] | IC50 ([2]; Homo sapiens, AGS) [nM] | IC50 ([3]; Homo sapiens, ASPC1, 168 h) [nM] | IC50 ([4]; 168 h) [nM] | IC50 [4] [nM]
 |  |  |  |  |  |  | C#Cc1c(F)ccc2cc(O)cc(-c3ncc4c(N5CC6CCC(C5)N6)nc(OCC56CCCN5C(c5ccc7c(c5)C5CCC7O5)CC6)nc4c3F)c12 (stereo not shown) [Example 192] | 284 | 96 | 1.8 | 12.2 | 3.51 | 
extremely poor | No parameter | 1 to 2 | 70 | 26 | 1.2 | 10.9 | C#Cc1c(F)ccc2cc(O)cc(-c3ncc4c(N5CC6CCC(C5)N6)nc(OC[C@@]56CCCN5C[C@H](F)C6)nc4c3F)c12 [MRTX1133, reference compound] |  |  |  |  |  | 1.38
 |  |  | 404 | 96 | 0.83 | 13.9 | Oc1cc(-c2ncc3c(N4C[C@H]5CC[C@@H](C4)N5)nc(OCC45CCCN4C(c4ccc6c(c4)OC(F)(F)O6)CC5)nc3c2F)c2c(F)c(F)ccc2c1 (stereo partly drawn) [Example 142, 4-(4-((1R,5S)-3,8-diazabicyclo[3.2.1]octan-3-yl)-2-((3-(2,2-difluorobenzo[d][1,3]dioxy-5-yl)tetrahydro-1H-pyrrolizin-7a(5H)-yl)methoxy)-8-fluoropyrido[4,3d]pyrimidin-7-yl)-5,6-difluoronaphthalen-2-ol] |  |  |  |  |  | 1.15
 |  |  |  |  |  |  | Oc1cc(-c2ncc3c(N4CC5CCC(C4)N5)nc(OCC45CCCN4[C@@H](c4ccc(C(F)(F)F)c(F)c4)CC5)nc3c2F)c2c(F)c(F)ccc2c1 (mixture of isomers) [Example 225] | 380 | 54 | 1.5 | 11.1 | 1.49 | 

Structure (SMILES) | oral pharmacokinetics (Cmax and AUC) ([1]; SD rats) | AUC ([1]; 10 mg/kg) | Cmax ([1]; 10 mg/kg) [ng/mL] | AUC ([1]; 100 mg/kg) [ng·h/mL] | Cmax ([1]; 100 mg/kg) [ng/mL] | IC50 [2] [nM] | IC50 [3] [nM] | AUC [1, 5] [ng·h/mL] | Cmax [1, 6] [ng/mL] | IC50 ([2]; Homo sapiens, AGS) [nM] | IC50 ([3]; Homo sapiens, ASPC1, 168 h) [nM] | IC50 ([4]; 168 h) [nM] | IC50 [4] [nM]
Oc1cc(-c2ncc3c(N4CC5CCC(C4)N5)nc(OCC45CCCN4[C@@H](c4cc(F)c(F)c(F)c4)CC5)nc3c2F)c2c(F)c(F)ccc2c1 (single isomer, unassigned) [Example 223] |  |  |  | 404 | 260 | 0.74 |  |  |  |  | 3.09 | 0.67 | 
